Assay results taken from patent US20190053492A1, “SUBSTITUTED PYRIDINE COMPOUNDS AS PESTICIDES” (Bayer CropScience Aktiengesellschaft, priority 2016, published 2019).
Where two headings read alike, the source gives them in different places.

How the values were obtained:
[1] = log P by HPLC on reversed-phase column (C 18), EEC Directive 79/831 Annex V.A8; assay type: physicochemical; conditions: 55° C.; for LOGP_HCOOH: log P (HCOOH); for LOGP_NEUTRAL: log P, neutral range; for chromatographic logP: reversed-phase HPLC column (C 18)
Description: Temperature: 55° C. […] Called log P (HCOOH) in the table. […] Called log P (neutral) in the table.

[2] = test system: Ctenocephalides felis; test: Ctenocephalides felis oral test; assay type: in vivo; conditions: application rate 100 ppm in citrated cattle blood, after 2 days, adult cat fleas
How it was run: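 Kill (%) was recorded at 2 days. Compound, dissolved in DMSO and diluted into citrated cattle blood, was offered to roughly 20 unfed adult C. felis through parafilm.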

[3] = test system: Meloidogyne incognita; test: Meloidogyne incognita test; assay type: in vivo; conditions: application rate 20 ppm, after 14 days, lettuce
Description: Meloidogyne incognita Test Solvent: 125.0 parts by weight of acetone To produce a suitable active ingredient formulation, 1 part by weight of active ingredient is mixed with the stated amount of solvent and the concentrate is diluted with water to the desired concentration. Vessels are filled with sand, active ingredient solution, an egg/larvae suspension of the southern root-knot nematode (Meloidogyne incognita) and lettuce seeds. The lettuce seeds germinate and the plants develop. The galls develop on the roots. After 14 days, the nematicidal efficacy in % is determined by the formation of galls. 100% means that no galls were found; 0% means that the number of galls on the treated plants corresponds to the untreated control.

[4] = test system: Myzus persicae; test: Myzus persicae spray test; assay type: in vivo; conditions: application rate 500 g/ha, after 6 days, Chinese cabbage leaf discs
Description: Myzus persicae—Spray Test
Solvent: 78 parts by weight of acetone • • 1.5 parts by weight of dimethylformamide
(§1) Emulsifier: alkylaryl polyglycol ether
(§2) To produce a suitable active ingredient formulation, 1 part by weight of active ingredient is dissolved with the specified parts by weight of solvent and made up with water containing an emulsifier concentration of 1000 ppm until the desired concentration is attained. To produce further test concentrations, the formulation is diluted with emulsifier-containing water.
Discs of Chinese cabbage leaves (Brassica pekinensis) infested by all stages of the green peach aphid (Myzus persicae) are sprayed with an active ingredient formulation of the desired concentration.
After 6 days, the efficacy in % is determined. 100% means that all the aphids have been killed; 0% means that no aphids have been killed.

[5] = test system: Phaedon cochleariae; test: Phaedon cochleariae spray test; assay type: in vivo; conditions: after 7 days, Chinese cabbage leaf discs
How it was run: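 Larval kill read at day 7 as percent, where 100% means every larva dead and 0% none; larvae were placed on dried Brassica pekinensis leaf discs previously sprayed with the formulation (acetone/dimethylformamide solvent, alkylaryl polyglycol ether emulsifier, water).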

[6] = test system: Spodoptera frugiperda; test: Spodoptera frugiperda spray test; assay type: in vivo; conditions: after 7 days, maize leaf discs
How it was run: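 Efficacy in % was scored at 7 days against armyworm caterpillars placed on dried, compound-sprayed Zea mays leaf discs. Compound was dissolved in acetone/dimethylformamide and diluted in water with 1000 ppm alkylaryl polyglycol ether. 100% means all caterpillars were killed.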

[7] = test system: Boophilus microplus; test: Boophilus microplus injection test; assay type: in vivo; conditions: application rate 20 μg/animal, assessed after 7 days, engorged adult female cattle ticks
Description: Boophilus microplus—Injection Test
Solvent: dimethyl sulphoxide
To produce a suitable active ingredient formulation, 10 mg of active ingredient are mixed with 0.5 ml of solvent and the concentrate is diluted to the desired concentration with solvent.
1 μl of the active ingredient solution is injected into the abdomen of 5 engorged adult female cattle ticks (Boophilus microplus). The animals are transferred into dishes and kept in a climate-controlled room.
Efficacy is assessed after 7 days by laying of fertile eggs. Eggs which are not visibly fertile are stored in a climate-controlled cabinet until the larvae hatch after about 42 days. An efficacy of 100% means that none of the ticks has laid any fertile eggs; 0% means that all the eggs are fertile.

[8] = test system: Lucilia cuprina; test: Lucilia cuprina test; assay type: in vivo; conditions: application rate 100 ppm, after 2 days, L1 larvae
How it was run: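 Percent mortality read at day 2, where 100% means all larvae dead. Roughly 20 L1 larvae were exposed on minced horsemeat treated with a DMSO/water formulation at the desired concentration.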

[9] = test system: Tetranychus urticae; test: Tetranychus urticae spray test, OP-resistant; assay type: in vivo; conditions: application rate 500 g/ha, after 6 days, bean leaf discs
Description: Tetranychus urticae—Spray Test, OP-Resistant
Solvent: 78.0 parts by weight of acetone • • 1.5 parts by weight of dimethylformamide
as §1, §2
Discs of bean leaves (Phaseolus vulgaris) infested with all stages of the greenhouse red spider mite (Tetranychus urticae) are sprayed with an active ingredient formulation of the desired concentration.
After 6 days, the efficacy in % is determined. 100% means that all the spider mites have been killed; 0% means that no spider mites have been killed.

[10] = test system: Ctenocephalides felis; test: Ctenocephalides felis in vitro contact test with adult cat fleas; assay type: in vivo; conditions: application rate 5 μg/cm^2 (500 g/ha), after 48 h
Description: Ctenocephalides felis—In Vitro Contact Tests with Adult Cat Fleas
For the coating of the test tubes, 9 mg of active ingredient are first dissolved in 1 ml of acetone p.a. and then diluted to the desired concentration with acetone p.a. 250 μl of the solution are distributed homogeneously on the inner walls and the base of a 25 ml glass tube by turning and rocking on an orbital shaker (rocking rotation at 30 rpm for 2 h). With 900 ppm of active ingredient solution and internal surface area 44.7 cm^2, given homogeneous distribution, an area-based dose of 5 μg/cm^2 is achieved.
After the solvent has evaporated off, the tubes are populated with 5-10 adult cat fleas (Ctenocephalides felis), sealed with a perforated plastic lid and incubated in a horizontal position at room temperature and ambient humidity. After 48 h, efficacy is determined. To this end, the tubes are stood upright and the fleas are knocked to the base of the tube. Fleas which remain motionless at the base or move in an uncoordinated manner are considered to be dead or moribund.
100% efficacy means that all the fleas were dead or moribund. 0% efficacy means that no fleas were harmed.

[11] = test system: Musca domestica; test: Musca domestica test; assay type: in vivo; conditions: application rate 100 ppm, after 2 days, adult houseflies
How it was run: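 Active ingredient was dissolved in DMSO and diluted with water to the desired concentration, then applied to a sponge with sugar solution. Ten adult houseflies were exposed per vessel. Percent kill was scored after 2 days.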

[12] = acidic range pH 2.7, 0.1% aqueous formic acid and acetonitrile, reversed-phase column (C 18)
[13] = HPLC on reversed-phase column (C 18)
[14] = acidic range at pH 2.7, 0.1% aqueous formic acid and acetonitrile, HPLC on reversed-phase column (C 18)

SMILES | LOGP_HCOOH [1, 12] | LOGP_NEUTRAL [1, 13] | nematicidal efficacy (formation of galls) [3] | efficacy (aphids killed) [4] | efficacy (no laying of fertile eggs) [7] | efficacy (kill in %) [2] | efficacy (kill in %) [8] | LOGP_HCOOH [1, 14] | efficacy (kill in %) [11] | efficacy (beetle larvae killed) ([5]; application rate 100 g/ha) | efficacy (beetle larvae killed) ([5]; application rate 500 g/ha) | efficacy (caterpillars killed) ([6]; application rate 100 g/ha) | efficacy (caterpillars killed) ([6]; application rate 500 g/ha) | other results
N#Cc1ccc(CNC(=O)c2cc(-c3ccc(C(F)(F)F)cc3)cc(N(C(=O)C3CC3)C(=O)C3CC3)n2)cc1F [Example I-028, 6-[Bis(cyclopropylcarbonyl)amino]-N-(4-cyano-3-fluorobenzyl)-4-[4-(trifluoromethyl)phenyl]pyridine-2-carboxamide] | 4.27 | 4.18 | 90% | 90% | – | – | – | – | – | – | – | – | – | chromatographic logP ([1]; pH 2.7, LC-MS acidic range, pH 2.7, 0.1% formic acid/acetonitrile, read-out: log P (acidic) / log P (HCOOH)): 4.27; chromatographic logP ([1]; pH 7.8, LC-MS neutral range, pH 7.8, ammonium hydrogencarbonate/acetonitrile, read-out: log P (neutral)): 4.18; pest or weed control at 100 ppm ([2]; Ctenocephalides felis, po, 48 h, read-out: efficacy (kill in %)): 100%; pest or weed control at 500 g/ha ([5]; Phaedon cochleariae, foliar, 168 h, application rate 500 g/ha, read-out: efficacy (beetle larvae killed)): 100%; pest or weed control at 100 g/ha ([6]; Spodoptera frugiperda, foliar, 168 h, application rate 100 g/ha, read-out: efficacy (caterpillars killed)): 83%; pest or weed control at 500 g/ha ([6]; Spodoptera frugiperda, foliar, 168 h, application rate 500 g/ha, read-out: efficacy (caterpillars killed)): 100%
CC(C)C(=O)Nc1cc(-c2ccc(OC(F)(F)F)cc2)cc(C(=O)NCc2ccc(-c3cnco3)cc2)n1 [Example I-104] | 3.99 | 3.87 | 90% | – | 95% | 80% | 100% | – | – | – | – | – | – | efficacy (spider mites killed) [9]: 90%
COC(=O)C1(NC(=O)c2cc(-c3ccc(OC(F)(F)F)cc3)cc(NC(=O)C3CC3)n2)CC1 [Example I-138] | – | – | 90% | – | – | 100% | 100% | 3.42 | 100% | 100% | 100% | 100% | 100% | efficacy (fleas dead or moribund) [10]: 100%
N#Cc1ccc(CNC(=O)c2cc(-c3ccc([S+]([O-])C(F)(F)F)cc3)cc(NC(=O)C3CC3)n2)cc1 (stereo not shown) [Example I-151] | – | 3.50 | – | – | 80% | 100% | 100% | 3.09 | 100% | 100% | 100% | 100% | 100% | –
COC(=O)C1(NC(=O)c2cc(-c3ccc(OC(F)(F)F)cc3)cc(NC(=O)C3CC3)n2)COC1 [Example I-175] | – | 3.17 | – | 90% | – | – | – | 3.25 | – | – | – | – | – | –
